Test results taken from ChEMBL document CHEMBL5620419, “Discovery of new Lenalidomide derivatives as potent and selective GSPT1 degraders” (Eur J Med Chem, 2023).

Target: Protein cereblon/Eukaryotic peptide chain release factor GTP-binding subunit ERF3A (Homo sapiens, UniProt P15170+Q96SW2)
Assay: PROTAC activity at CRBN/GSPT1 in human U-937 cells assessed as degradation of GSPT1 measured after 6 hrs by Western blot analysis
Format: cell-based

Sequence of Protein cereblon/Eukaryotic peptide chain release factor GTP-binding subunit ERF3A (Q96SW2 whole entry): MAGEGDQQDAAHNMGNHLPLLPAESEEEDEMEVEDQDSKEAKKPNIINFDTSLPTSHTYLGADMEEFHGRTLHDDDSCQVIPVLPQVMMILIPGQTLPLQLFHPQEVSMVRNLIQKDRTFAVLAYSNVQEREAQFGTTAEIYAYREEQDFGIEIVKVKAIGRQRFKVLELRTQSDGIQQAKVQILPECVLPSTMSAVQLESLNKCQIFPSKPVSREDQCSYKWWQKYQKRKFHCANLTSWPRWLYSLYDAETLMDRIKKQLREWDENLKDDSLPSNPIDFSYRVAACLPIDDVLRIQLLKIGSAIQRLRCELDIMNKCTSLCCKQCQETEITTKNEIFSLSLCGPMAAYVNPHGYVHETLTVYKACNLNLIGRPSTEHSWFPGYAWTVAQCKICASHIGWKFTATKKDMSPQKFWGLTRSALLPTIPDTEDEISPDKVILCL
Sequence of Protein cereblon/Eukaryotic peptide chain release factor GTP-binding subunit ERF3A (P15170 whole entry): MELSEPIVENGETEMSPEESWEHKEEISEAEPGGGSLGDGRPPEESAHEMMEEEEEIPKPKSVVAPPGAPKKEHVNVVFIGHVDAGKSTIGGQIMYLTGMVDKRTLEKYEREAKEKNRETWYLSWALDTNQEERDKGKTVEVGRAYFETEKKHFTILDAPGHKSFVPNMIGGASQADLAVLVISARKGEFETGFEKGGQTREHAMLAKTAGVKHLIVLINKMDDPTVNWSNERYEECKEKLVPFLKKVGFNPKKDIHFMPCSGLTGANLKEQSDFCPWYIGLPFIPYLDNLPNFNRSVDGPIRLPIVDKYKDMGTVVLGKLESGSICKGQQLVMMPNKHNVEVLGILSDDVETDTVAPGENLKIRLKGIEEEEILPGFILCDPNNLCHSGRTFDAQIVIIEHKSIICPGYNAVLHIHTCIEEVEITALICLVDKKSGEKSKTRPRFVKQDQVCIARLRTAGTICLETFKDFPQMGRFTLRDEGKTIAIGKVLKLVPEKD

EC50 | Compound
> 10 µM | Cc1ccc(NC(=O)/C=C/c2ccc3c(c2)C(=O)N(C2CCC(=O)NC2=O)C3)cc1Cl (configuration not stated)
> 10 µM | Cc1cc(NC(=O)C(C)Cc2ccc3c(c2)CN(C2CCC(=O)NC2=O)C3=O)ccc1Cl (configuration not stated)
